Assay: Solid stability test under long-term conditions (25° C./Relative Humidity 60%, sealed)
Assay type: physicochemical
Method: Content Determination Method
Device: Agilent 1260 High Performance Liquid Chromatograph with DAD detector or Shimadzu LC-20A High Performance Liquid Chromatograph with PDA detector
Detailed Chromatographic parameters are as follows:
Chromatographic column: Agilent Eclipse plus C18 (4.6 mm×150 mm, 3.5 μm)
Column temperature: 40° C.
Detecting wavelength: 230 nm
Mobile Phase A: 0.04% trifluoroacetic acid aqueous solution (V/V)
Mobile Phase B: acetonitrile
Diluent: acetonitrile: purified water=3:1 (v/v)
Probe Wash: acetonitrile: purified water=3:1 (v/v)
Gradient elution procedure: […]
Each layer of the low-density polyethylene bag was buckled and sealed respectively and then the bag was placed in an aluminum foil bag and heat-sealed. The samples were taken on the 3rd, 6th, 9th, 12th and 18th months for testing and the test results were compared with the initial test results of day 0.

[1] = Batch 1, 25° C./Relative Humidity 60%, Sealed, 3rd month
[2] = Batch 1, 25° C./Relative Humidity 60%, Sealed, 6th month
[3] = Batch 1, 25° C./Relative Humidity 60%, Sealed, 9th month
[4] = Batch 1, 25° C./Relative Humidity 60%, Sealed, 12th month
[5] = Batch 1, 25° C./Relative Humidity 60%, Sealed, 18th month
[6] = Batch 2, 25° C./Relative Humidity 60%, Sealed, 3rd month
[7] = Batch 2, 25° C./Relative Humidity 60%, Sealed, 6th month
[8] = Batch 2, 25° C./Relative Humidity 60%, Sealed, 9th month
[9] = Batch 2, 25° C./Relative Humidity 60%, Sealed, 12th month
[10] = Batch 2, 25° C./Relative Humidity 60%, Sealed, 18th month
[11] = Batch 3, 25° C./Relative Humidity 60%, Sealed, 3rd month
[12] = Batch 3, 25° C./Relative Humidity 60%, Sealed, 6th month
[13] = Batch 3, 25° C./Relative Humidity 60%, Sealed, 9th month
[14] = Batch 3, 25° C./Relative Humidity 60%, Sealed, 12th month
[15] = Batch 3, 25° C./Relative Humidity 60%, Sealed, 18th month

## CCOc1cc([C@@H](CS(C)(=O)=O)n2c(=O)[nH]c3c(C)c(-c4ccccc4F)cnc32)ccc1OC [Crystal Form A of Compound 1]
[1]
  Appearance: White powder
  Content: 99.0%
  Total Impurity: 0.09%
[2]
  Appearance: White powder
  Content: 101.4%
  Crystal Form (XRPD): Crystal Form A
  Total Impurity: 0.09%
[3]
  Appearance: White powder
  Content: 99.6%
  Total Impurity: 0.09%
[4]
  Appearance: White powder
  Content: 98.8%
  Crystal Form (XRPD): Crystal Form A
  Total Impurity: 0.08%
[5]
  Appearance: White powder
  Content: 97.3%
  Total Impurity: 0.10%
Batch 1, Day 0
  Appearance: White powder
  Content: 99.4%
  Crystal Form (XRPD): Crystal Form A
  Total Impurity: 0.09%
[6]
  Appearance: White powder
  Content: 100.5%
  Total Impurity: 0.11%
[7]
  Appearance: White powder
  Content: 100.1%
  Crystal Form (XRPD): Crystal Form A
  Total Impurity: 0.12%
[8]
  Appearance: White powder
  Content: 99.6%
  Total Impurity: 0.11%
[9]
  Appearance: White powder
  Content: 98.2%
  Crystal Form (XRPD): Crystal Form A
  Total Impurity: 0.09%
[10]
  Appearance: White powder
  Content: 99.1%
  Total Impurity: 0.11%
Batch 2, Day 0
  Appearance: White powder
  Content: 99.4%
  Crystal Form (XRPD): Crystal Form A
  Total Impurity: 0.10%
[11]
  Appearance: White powder
  Content: 98.9%
  Total Impurity: 0.16%
[12]
  Appearance: White powder
  Content: 98.5%
  Crystal Form (XRPD): Crystal Form A
  Total Impurity: 0.12%
[13]
  Appearance: White powder
  Content: 99.2%
  Total Impurity: 0.11%
[14]
  Appearance: White powder
  Content: 98.4%
  Crystal Form (XRPD): Crystal Form A
  Total Impurity: 0.10%
[15]
  Appearance: White powder
  Content: 99.7%
  Total Impurity: 0.17%
Batch 3, Day 0
  Appearance: White powder
  Content: 99.5%
  Crystal Form (XRPD): Crystal Form A
  Total Impurity: 0.11%
long-term conditions of 25° C./Relative Humidity 60%
  Solid stability (conclusion): good stability
